One assay addresses T1, CDK9 (Homo sapiens, UniProt P50750).
T1 construct: endogenous in cells; host or cells: MDA-MB-231
Kind of assay: CDK protein degradation activity (Western blotting), CDK9. The class given is cell-based. The following applies: MDA-MB-231 cells, 16 hours, Western blot. The method, boiled down:
(§1)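 Degradation is judged from CDK2 and CDK9 band intensity relative to tubulin and DMSO-treated cells, after 16 h exposure of MDA-MB-231 cells to three compound concentrations (100 nM, 1 μM, 10 μM).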
A general note: A western blot detects proteins with antibodies after separation by electrophoresis.

In another assay the target is T2, CDK2 (Homo sapiens, UniProt P24941).
T2 construct: endogenous in cells; host or cells: MDA-MB-231
In words: CDK protein degradation activity (Western blotting), CDK2. The class given is cell-based. The settings on record: MDA-MB-231 cells, 16 hours, Western blot. The method, boiled down: as §1

T1 sequence (P50750 whole entry): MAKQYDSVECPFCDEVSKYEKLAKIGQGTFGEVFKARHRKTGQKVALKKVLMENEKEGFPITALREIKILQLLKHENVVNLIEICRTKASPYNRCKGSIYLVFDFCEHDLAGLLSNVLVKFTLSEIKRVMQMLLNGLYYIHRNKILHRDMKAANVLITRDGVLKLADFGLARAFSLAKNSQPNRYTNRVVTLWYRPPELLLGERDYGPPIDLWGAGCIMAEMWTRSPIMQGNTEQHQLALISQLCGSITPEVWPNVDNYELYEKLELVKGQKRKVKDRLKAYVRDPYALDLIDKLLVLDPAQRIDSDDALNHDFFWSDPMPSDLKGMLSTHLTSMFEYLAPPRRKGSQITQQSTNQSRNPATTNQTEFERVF

In the case of `O=C1CC[C@H](N2C(=O)c3cccc(OCC(=O)N4CCN(CC5CCN(c6ccc(Nc7ncnc8c7ncn8C7CC(NC(=O)Cc8ccccc8)C7)cc6)CC5)CC4)c3C2=O)C(=O)N1` (stereo partly drawn) [Compound 326, N-((1s,3s)-3-(6-((4-(4-((4-(2-((2-(2,6-dioxopiperidin-3-yl)-1,3-dioxoisoindolin-4-yl)oxy)acetyl)piperazin-1-yl)methyl)piperidin-1-yl)phenyl)amino)-9H-purin-9-yl)cyclobutyl)-2-phenylacetamide], at CDK9, the “Enzyme degradation CDK9 (% remaining) @ 0.1 μM” value is on record as 80%, the “Enzyme degradation CDK9 (% remaining) @ 1 μM” value is recorded as 10% and the “Enzyme degradation CDK9 (% remaining) @ 10 μM” value worked out at 0%. At CDK2, the “Enzyme degradation CDK2 (% remaining) @ 0.1 μM” value is recorded as 20%, the “Enzyme degradation CDK2 (% remaining) @ 1 μM” value came to 0% and the “Enzyme degradation CDK2 (% remaining) @ 10 μM” value is listed as 0%.
As for `O=C1CC[C@H](N2C(=O)c3cccc(N4CCC(CN5CCC(CNc6ncnc7c6ncn7C6CC(NC(=O)c7c(Cl)cccc7Cl)C6)CC5)CC4)c3C2=O)C(=O)N1` (stereo partly drawn) [Compound 172, 2,6-dichloro-N-((1s,3s)-3-(6-(((1-((1-(2-(2,6-dioxopiperidin-3-yl)-1,3-dioxoisoindolin-4-yl)piperidin-4-yl)methyl)piperidin-4-yl)methyl)amino)-9H-purin-9-yl)cyclobutyl)benzamide], on CDK9, the “Enzyme degradation CDK9 (% remaining) @ 0.1 μM” value is on record as 50%, the “Enzyme degradation CDK9 (% remaining) @ 1 μM” value is on record as 0% and the “Enzyme degradation CDK9 (% remaining) @ 10 μM” value is recorded as 0%. Moreover, on CDK2, the “Enzyme degradation CDK2 (% remaining) @ 0.1 μM” value was determined as 10%, the “Enzyme degradation CDK2 (% remaining) @ 1 μM” value is recorded as 20% and the “Enzyme degradation CDK2 (% remaining) @ 10 μM” value is recorded as 20%.
Turning to `CC(=O)N[C@H]1C[C@@H](n2cnc3c(NCC4CCN(CC5CCN(C(=O)COc6ccc7c(c6)C(=O)N([C@H]6CCC(=O)NC6=O)C7=O)CC5)CC4)ncnc32)C1` [Compound 154, N-((1s,3s)-3-(6-(((1-((1-(2-((2-(2,6-dioxopiperidin-3-yl)-1,3-dioxoisoindolin-5-yl)oxy)acetyl)piperidin-4-yl)methyl)piperidin-4-yl)methyl)amino)-9H-purin-9-yl)cyclobutyl)acetamide], at CDK9, the “Enzyme degradation CDK9 (% remaining) @ 0.1 μM” value was determined as 90%, the “Enzyme degradation CDK9 (% remaining) @ 1 μM” value worked out at 70% and the “Enzyme degradation CDK9 (% remaining) @ 10 μM” value was 30%. For the same molecule, at CDK2, the “Enzyme degradation CDK2 (% remaining) @ 0.1 μM” value stood at 100%, the “Enzyme degradation CDK2 (% remaining) @ 1 μM” value is reported as 70% and the “Enzyme degradation CDK2 (% remaining) @ 10 μM” value was found to be 70%.
As for `Cc1cccc(C(=O)NC2CC(n3cnc4c(NCc5ccc(N6CCN(CC7CCN(C(=O)CNc8cccc9c8C(=O)N([C@H]8CCC(=O)NC8=O)C9=O)CC7)CC6)cc5)ncnc43)C2)n1` (stereo partly drawn) [Compound 152, N-((1s,3s)-3-(6-((4-(4-((1-((2-(2,6-dioxopiperidin-3-yl)-1,3-dioxoisoindolin-4-yl)glycyl)piperidin-4-yl)methyl)piperazin-1-yl)benzyl)amino)-9H-purin-9-yl)cyclobutyl)-6-methylpicolinamide], on CDK9, the “Enzyme degradation CDK9 (% remaining) @ 0.1 μM” value is 0/0/0%, the “Enzyme degradation CDK9 (% remaining) @ 1 μM” value was 0/0/0% and the “Enzyme degradation CDK9 (% remaining) @ 10 μM” value was 0/0/0%. Besides, at CDK2, the “Enzyme degradation CDK2 (% remaining) @ 0.1 μM” value is 10/10/10%, the “Enzyme degradation CDK2 (% remaining) @ 1 μM” value is on record as 10/10/10% and the “Enzyme degradation CDK2 (% remaining) @ 10 μM” value is given as 10/10/10%.
As for “N-((1s,3s)-3-(6-((4-(4-(3-(4-(1-(2-(2,6-dioxopiperidin-3-yl)-1,3-dioxoisoindolin-5-yl)azetidin-3-carbonyl)piperazin-1-yl)propyl)piperidin-1-yl)phenyl)amino)-9H-purin-9-yl)cyclobutyl)-2-phenylacetamide [Compound 366]”, at CDK9, the “Enzyme degradation CDK9 (% remaining) @ 0.1 μM” value is listed as 10/10/10%, the “Enzyme degradation CDK9 (% remaining) @ 1 μM” value is given as 10/10/10% and the “Enzyme degradation CDK9 (% remaining) @ 10 μM” value was 10/10/10%. At CDK2, the “Enzyme degradation CDK2 (% remaining) @ 0.1 μM” value stood at 20%, the “Enzyme degradation CDK2 (% remaining) @ 1 μM” value is recorded as 0% and the “Enzyme degradation CDK2 (% remaining) @ 10 μM” value amounted to 0%.
For `Cc1cccc(C(=O)NC2CC(n3cnc4c(NCc5cccc(N6CCN(c7cccc8c7C(=O)N([C@H]7CCC(=O)NC7=O)C8=O)CC6)c5)ncnc43)C2)n1` (stereo partly drawn) [Compound 126, N-((1s,3s)-3-(6-((3-(4-(2-(2,6-dioxopiperidin-3-yl)-1,3-dioxoisoindolin-4-yl)piperazin-1-yl)benzyl)amino)-9H-purin-9-yl)cyclobutyl)-6-methylpicolinamide], at CDK9, the “Enzyme degradation CDK9 (% remaining) @ 0.1 μM” value is 80%, the “Enzyme degradation CDK9 (% remaining) @ 1 μM” value was 70% and the “Enzyme degradation CDK9 (% remaining) @ 10 μM” value was 70%. Besides, on CDK2, the “Enzyme degradation CDK2 (% remaining) @ 0.1 μM” value worked out at 80%, the “Enzyme degradation CDK2 (% remaining) @ 1 μM” value is listed as 70% and the “Enzyme degradation CDK2 (% remaining) @ 10 μM” value was 70%.
Consider `O=C1CC[C@H](N2C(=O)c3ccc(N4CC(C(=O)N5CCC(CN6CCN(c7ccc(Nc8ncnc9c8ncn9C8CC(NC(=O)c9cccc(F)n9)C8)cc7)CC6)CC5)C4)cc3C2=O)C(=O)N1` (stereo partly drawn) [Compound 466, N-((1s,3s)-3-(6-((4-(4-((1-(1-(2-(2,6-dioxopiperidin-3-yl)-1,3-dioxoisoindolin-5-yl)azetidin-3-carbonyl)piperidin-4-yl)methyl)piperazin-1-yl)phenyl)amino)-9H-purin-9-yl)cyclobutyl)-6-fluoropicolinamide], for which, at CDK9, the “Enzyme degradation CDK9 (% remaining) @ 0.1 μM” value is given as 0/0/0%, the “Enzyme degradation CDK9 (% remaining) @ 1 μM” value is listed as 0/0/0% and the “Enzyme degradation CDK9 (% remaining) @ 10 μM” value is reported as 0/0/0%. On CDK2, the “Enzyme degradation CDK2 (% remaining) @ 0.1 μM” value worked out at 30%, the “Enzyme degradation CDK2 (% remaining) @ 1 μM” value was 20% and the “Enzyme degradation CDK2 (% remaining) @ 10 μM” value is 20%.
`O=C1CC[C@H](N2C(=O)c3cccc(N4CCC(CN5CCN(c6ccc(Nc7ncnc8c7ncn8[C@H]7C[C@@H](NC(=O)c8c(Cl)cccc8Cl)C7)cc6)CC5)CC4)c3C2=O)C(=O)N1` [Compound 167, 2,6-dichloro-N-((1s,3s)-3-(6-((4-(4-((1-(2-(2,6-dioxopiperidin-3-yl)-1,3-dioxoisoindolin-4-yl)piperidin-4-yl)methyl)piperazin-1-yl)phenyl)amino)-9H-purin-9-yl)cyclobutyl)benzamide]: on CDK9, the “Enzyme degradation CDK9 (% remaining) @ 0.1 μM” value is recorded as 0/0/0%, the “Enzyme degradation CDK9 (% remaining) @ 1 μM” value is given as 0/0/0% and the “Enzyme degradation CDK9 (% remaining) @ 10 μM” value was 0/0/0%. For the same molecule, on CDK2, the “Enzyme degradation CDK2 (% remaining) @ 0.1 μM” value worked out at 30%, the “Enzyme degradation CDK2 (% remaining) @ 1 μM” value was determined as 40% and the “Enzyme degradation CDK2 (% remaining) @ 10 μM” value came out at 30%.
On to `O=C1CC[C@@H](c2cccc(OCC(=O)N3CCC4(CC3)CC(N3CCN(c5ccc(Nc6ncnc7c6ncn7C6CC(NC(=O)Cc7ccccc7)C6)cc5)CC3)C4)c2)C(=O)N1` (stereo partly drawn) [Compound 226, N-((1s,3s)-3-(6-((4-(4-(7-(2-(3-(2,6-dioxopiperidin-3-yl)phenoxy)acetyl)-7-azaspiro[3.5]nonan-2-yl)piperazin-1-yl)phenyl)amino)-9H-purin-9-yl)cyclobutyl)-2-phenylacetamide], for which, on CDK9, the “Enzyme degradation CDK9 (% remaining) @ 0.1 μM” value is reported as 0/0/0%, the “Enzyme degradation CDK9 (% remaining) @ 1 μM” value is on record as 0/0/0% and the “Enzyme degradation CDK9 (% remaining) @ 10 μM” value is recorded as 0/0/0%. On CDK2, the “Enzyme degradation CDK2 (% remaining) @ 0.1 μM” value came out at 40%, the “Enzyme degradation CDK2 (% remaining) @ 1 μM” value is on record as 30% and the “Enzyme degradation CDK2 (% remaining) @ 10 μM” value worked out at 40%.
With `O=C1CC[C@H](n2nnc3ccc(N4CCC(CN5CCC(CCNc6ncnc7c6ncn7C6CC(NC(=O)c7c(Cl)cccc7Cl)C6)CC5)CC4)cc3c2=O)C(=O)N1` (stereo partly drawn) [Compound 398, 2,6-dichloro-N-((1s,3s)-3-(6-((2-(1-((1-(3-(2,6-dioxopiperidin-3-yl)-4-oxo-3,4-dihydrobenzo[d][1,2,3]triazin-6-yl)piperidin-4-yl)methyl)piperidin-4-yl)ethyl)amino)-9H-purin-9-yl)cyclobutyl)benzamide], on CDK9, the “Enzyme degradation CDK9 (% remaining) @ 0.1 μM” value is listed as 20%, the “Enzyme degradation CDK9 (% remaining) @ 1 μM” value is 10% and the “Enzyme degradation CDK9 (% remaining) @ 10 μM” value is recorded as 10%. Moreover, at CDK2, the “Enzyme degradation CDK2 (% remaining) @ 0.1 μM” value is recorded as 20%, the “Enzyme degradation CDK2 (% remaining) @ 1 μM” value was found to be 30% and the “Enzyme degradation CDK2 (% remaining) @ 10 μM” value is listed as 30%.
For `O=C1CC[C@H](N2C(=O)c3ccc(N4CCC(CN5CCN(c6ccc(Nc7ncnc8c7ncn8C7CC(NC(=O)c8cccc(C(F)(F)F)n8)C7)cc6)CC5)CC4)cc3C2=O)C(=O)N1` (stereo partly drawn) [Compound 393, N-((1s,3s)-3-(6-((4-(4-((1-(2-(2,6-dioxopiperidin-3-yl)-1,3-dioxoisoindolin-5-yl)piperidin-4-yl)methyl)piperazin-1-yl)phenyl)amino)-9H-purin-9-yl)cyclobutyl)-6-(trifluoromethyl)picolinamide], on CDK9, the “Enzyme degradation CDK9 (% remaining) @ 0.1 μM” value is given as 0/0/0%, the “Enzyme degradation CDK9 (% remaining) @ 1 μM” value was 0/0/0% and the “Enzyme degradation CDK9 (% remaining) @ 10 μM” value is recorded as 0/0/0%. In addition, at CDK2, the “Enzyme degradation CDK2 (% remaining) @ 0.1 μM” value was 10/10/10%, the “Enzyme degradation CDK2 (% remaining) @ 1 μM” value is 10/10/10% and the “Enzyme degradation CDK2 (% remaining) @ 10 μM” value was 10/10/10%.
With `Cc1cccc(C(=O)NC2CC(n3cnc4c(NCCC5CCN(CC6CCN(C(=O)C7CN(c8ccc9c(c8)C(=O)N([C@H]8CCC(=O)NC8=O)C9=O)C7)CC6)CC5)ncnc43)C2)n1` (stereo partly drawn) [Compound 309, N-((1s,3s)-3-(6-((2-(1-((1-(1-(2-(2,6-dioxopiperidin-3-yl)-1,3-dioxoisoindolin-5-yl)azetidin-3-carbonyl)piperidin-4-yl)methyl)piperidin-4-yl)ethyl)amino)-9H-purin-9-yl)cyclobutyl)-6-methylpicolinamide], at CDK9, the “Enzyme degradation CDK9 (% remaining) @ 0.1 μM” value is reported as 0/0/0%, the “Enzyme degradation CDK9 (% remaining) @ 1 μM” value is 0/0/0% and the “Enzyme degradation CDK9 (% remaining) @ 10 μM” value is 0/0/0%. Besides, at CDK2, the “Enzyme degradation CDK2 (% remaining) @ 0.1 μM” value is on record as 90%, the “Enzyme degradation CDK2 (% remaining) @ 1 μM” value worked out at 80% and the “Enzyme degradation CDK2 (% remaining) @ 10 μM” value was determined as 100%.

The record behind these values is US20260125382A1, “COMPOUNDS FOR INHIBITING OR DEGRADING CDK2 AND/OR CDK9 AND MEDICINAL USE THEREOF” (KOREA RESEARCH INSTITUTE OF CHEMICAL TECHNOLOGY, priority 2022, published 2026).
